Assay results reported in paper PMC4493059, “The Crystal Structure of Thermotoga maritima Class III Ribonucleotide Reductase Lacks a Radical Cysteine Pre-Positioned in the Active Site” (PLoS ONE, 2015).

Assays:
tmNrdD = target: T1, tmNrdD (Thermotoga maritima, UniProt Q9WYL6); test: X-ray crystallography; assay type: binding
T1 construct: gene TM_0385; recombinant in E. coli, homodimer; residues to 651, Gly621 radical site

[1] = target: anaerobic (class III) ribonucleotide reductase from Thermotoga maritima (Thermotoga maritima); test: crystal structure; tmNrdD dimer in the asymmetric unit, space group P2_(1); apo forms with glycerol, MES or citrate in the active site, and complexes with dATP or dATP/CTP; resolutions from 2.4 Å to 1.92 Å

T1 sequence (Q9WYL6 entry or part of it): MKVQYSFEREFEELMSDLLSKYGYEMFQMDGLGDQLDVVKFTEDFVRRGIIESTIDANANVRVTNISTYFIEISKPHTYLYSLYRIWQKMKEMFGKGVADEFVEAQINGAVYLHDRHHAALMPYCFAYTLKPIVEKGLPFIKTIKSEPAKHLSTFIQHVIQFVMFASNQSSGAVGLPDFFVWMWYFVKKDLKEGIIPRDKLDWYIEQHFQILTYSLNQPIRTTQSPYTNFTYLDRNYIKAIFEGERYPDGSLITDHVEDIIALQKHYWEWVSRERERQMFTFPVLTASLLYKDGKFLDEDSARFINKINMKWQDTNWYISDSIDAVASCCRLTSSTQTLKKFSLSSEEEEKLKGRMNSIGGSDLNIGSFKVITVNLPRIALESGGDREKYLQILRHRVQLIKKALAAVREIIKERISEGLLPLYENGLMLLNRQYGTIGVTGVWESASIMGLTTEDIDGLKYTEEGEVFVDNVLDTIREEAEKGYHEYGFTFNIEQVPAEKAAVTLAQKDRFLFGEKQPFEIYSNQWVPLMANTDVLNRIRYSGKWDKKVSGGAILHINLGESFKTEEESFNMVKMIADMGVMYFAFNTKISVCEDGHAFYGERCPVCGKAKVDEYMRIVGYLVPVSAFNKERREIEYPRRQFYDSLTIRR

Molecule: Nc1ccn([C@@H]2O[C@H](COP(=O)(O)OP(=O)(O)OP(=O)(O)O)[C@@H](O)[C@H]2O)c(=O)n1 [CTP]
- X-ray crystallography (tmNrdD; active site, with effector dATP, soak or co-crystal 2 mM CTP, also reduced to dCTP in assay with MBP-tmNrdG and T. maritima cell extract): represents the first structure of an anaerobic, class III RNR with a substrate

Molecule: anaerobic (class III) ribonucleotide reductase from Thermotoga maritima (enzyme)
- stoichiometry N [1]: 2

Molecule: Nc1ncnc2c1ncn2[C@H]1C[C@H](O)[C@@H](COP(=O)(O)OP(=O)(O)OP(=O)(O)O)O1 [dATP]
- X-ray crystallography (tmNrdD; allosteric specificity effector site at dimer interface, Mg2+ (Mn2+ substituted), dATP alone 4COL, also with CTP 4COJ, soak or co-crystal 0.5 mM dATP): The effector dATP binds at the dimer interface, along the length of helices αA and αB
